The test system of data set [1] is Rattus norvegicus. Kind of data set: Neuroleptic activity in ip dosed Sprague-Dawley rat assessed as conditioned active avoidance failure after 30 mins. The class given is functional. Particulars: 0.5 h.
Data set [2] relates to Rattus norvegicus. Kind of data set: Toxicity in ip dosed Sprague-Dawley rat assessed as induction of maximum catalepsy. Particulars: in vivo. The data set is classed as organism-based.
Data set [3] has as its system Rattus norvegicus. Kind of data set: Neuroleptic activity in ip dosed Sprague-Dawley rat assessed as protection against epinephrine-induced mortality administered 1 hr prior to epinephrine injection. The data set is classed as functional.
Data set [4] relates to Rattus norvegicus. Kind of data set: Neuroleptic activity in ip dosed Sprague-Dawley rat assessed as inhibition of amphetamine-induced stereotyped behaviour administered 15 mins after d-amphetamine challenge. The data set is classed as functional. Particulars: 0.25 h, read-out: MED.
In data set [5] the test system is Rattus norvegicus. Kind of data set: Neuroleptic activity in ip dosed Sprague-Dawley rat assessed as dose required to decrease the continuous (Sidman) lever-pressing response to <50%. The data set is classed as functional.

As usually defined, the ED50 is the dose at which the effect has come halfway, by size or by number of responders.

Regarding `CC(C)[C@@]1(O)CCN2C[C@@H]3c4ccccc4CCc4c(Cl)ccc(c43)[C@H]2C1.Cl`, the ED50 in the data set with Rattus norvegicus [1] was 9 mg/kg; in the data set on Rattus norvegicus [3], 50 mg/kg. Further, in the data set on Rattus norvegicus [2], the MED worked out at 50 mg/kg. Besides, the minimal effective dose with Rattus norvegicus [4] came out at 10 mg/kg. In the data set with Rattus norvegicus [5], the Activity was 2.5 mg/kg.
As for `CC(C)[C@@]1(O)CCN2C[C@@H]3c4cccc(Cl)c4CCc4cccc(c43)[C@H]2C1.Cl`, the values for the ED50 in the data set with Rattus norvegicus [1] and in the data set with Rattus norvegicus [3] were above 20 mg/kg and 100 mg/kg, respectively. Moreover, the MED in the data set on Rattus norvegicus [2] is 100 mg/kg. Besides, in the data set on Rattus norvegicus [4], the minimal effective dose was found to be 20 mg/kg. Further, the Activity with Rattus norvegicus [5] was found to be 20 mg/kg.
For `CC(C)[C@@]1(O)CCN2C[C@@H]3c4ccc(Cl)cc4CCc4cccc(c43)[C@H]2C1.Cl`, the ED50 with Rattus norvegicus [1] is 1.1 mg/kg; with Rattus norvegicus [3], 13.9 mg/kg. In addition, the MED in the data set with Rattus norvegicus [2] was determined as 12.5 mg/kg. The minimal effective dose in the data set on Rattus norvegicus [4] stood at 1.25 mg/kg. The Activity in the data set with Rattus norvegicus [5] was found to be 0.62 mg/kg.
In the case of `CC(C)[C@@]1(O)CCN2C[C@@H]3c4cc(Cl)ccc4CCc4c(Cl)ccc(c43)[C@H]2C1.Cl`, the ED50 in the data set on Rattus norvegicus [3] is above 60 mg/kg. Further, the minimal effective dose with Rattus norvegicus [4] was above 20 mg/kg. Moreover, in the data set with Rattus norvegicus [5], the Activity is above 5 mg/kg.
On to `OCCN1CCN(C2Cc3cc(Cl)ccc3Sc3ccccc32)CC1` (stereo not drawn), for which the ED50 turned out to be 4.5 mg/kg in the data set on Rattus norvegicus [1] and 0.88 mg/kg with Rattus norvegicus [3]. Moreover, the MED with Rattus norvegicus [2] is above 50 mg/kg. Besides, the minimal effective dose with Rattus norvegicus [4] was determined as 20 mg/kg. Further, the Activity in the data set with Rattus norvegicus [5] was determined as 2.5 mg/kg.
On to `CN1CCN(C2=Nc3cc(Cl)ccc3Nc3ccccc32)CC1` [CLOZAPINE], for which the ED50 worked out at 6.8 mg/kg in the data set on Rattus norvegicus [1] and 2.4 mg/kg in the data set with Rattus norvegicus [3]. Further, the MED in the data set on Rattus norvegicus [2] was above 100 mg/kg. Besides, the minimal effective dose in the data set with Rattus norvegicus [4] was found to be 50 mg/kg. Further, the Activity in the data set on Rattus norvegicus [5] came to 7.5 mg/kg.
For `CC(C)[C@@]1(O)CCN2C[C@@H]3c4ccccc4CCc4cccc(c43)[C@H]2C1` [DEXCLAMOL] the same measures were 0.64 mg/kg, 15 mg/kg, 12.5 mg/kg, 1.25 mg/kg and 0.5 mg/kg.

The values are drawn from ChEMBL document CHEMBL3244065, “Neuroleptics related to butaclamol. An investigation of the effects of chlorine substituents on the aromatic rings” (J Med Chem, 1978).
